Assays:
[1] = test system: KU812 cells; assay: Tritiated thymidine uptake in vitro proliferation assay; settings: erythromycin 5 to 30 μM, STI571 1 μM, AGP 1 mg/ml
[2] = test system: KU812 leukemic cells; assay: In vivo treatment of nude mice injected s.c. with KU812 leukemic cells; set-up: species or system CD1 nu/nu mice
Protocol: Seven to 9 week-old female CD1 nu/nu mice purchased at Charles River Breedin Laboratories (Calco, Italy) are kept under standard laboratory conditions according to the guidelines of the National Cancer Institutes, Milan, Italy. This study is approved by the institutional ethics committee for laboratory animals used in experimental research. KU812 bcr/abl positive cell line is injected (50×10^6 cells per animal) subcutaneously in the left flank of the animal. Oral treatment is administered through a syringe connected to a soft plastic tube introduced in esophagus (gavage). Tumor weight (TW) and total weight are monitored every 3-4 days. TW is calculated by the formula TW [mg]=(d^2×D), where d and D are the shortest and longest diameters of the tumor, respectively, measured in millimeters. Treatment is started 1-15 days after leukemic cell injection.
Nude mice are injected s.c. with 50 millions KU812 cells. Treatment is initiated after 1, 8 and 15 days respectively (groups I to III), in the presence of approximately, 50, 300 millions and 1 billion leukemic cells. […] To test this hypothesis mice in group II are treated for 11 or 18 days.
Mice are injected with KU812 cells and treatment is started 11 days later in the presence of an approximate tumor load of 400 mg.

[3] = target: T1, bcr/abl (Homo sapiens, UniProt P00519); assay: In vitro bcr/abl autophosphorylation in KU812 cells (anti-phosphotyrosine western blot); assay type: cell-based; settings: erythromycin base 100 μM, STI571 3 μM, AGP 2 mg/ml, 1 hour
T1 construct: Endogenous bcr/abl and tyrosine-phosphorylated bcr/abl are detected with the corresponding mouse monoclonal antibody; BCR N-terminal portion (fusion partner, human BCR P11274); endogenous in cells; host or cells: KU812 (DSMZ ACC 378), in culture or as subcutaneous tumour in CD1 nu/nu mice; the other entry of the earlier key: BCR (P11274, Breakpoint cluster region protein)
T1 sequence (P00519 with tags, fused parts or gaps): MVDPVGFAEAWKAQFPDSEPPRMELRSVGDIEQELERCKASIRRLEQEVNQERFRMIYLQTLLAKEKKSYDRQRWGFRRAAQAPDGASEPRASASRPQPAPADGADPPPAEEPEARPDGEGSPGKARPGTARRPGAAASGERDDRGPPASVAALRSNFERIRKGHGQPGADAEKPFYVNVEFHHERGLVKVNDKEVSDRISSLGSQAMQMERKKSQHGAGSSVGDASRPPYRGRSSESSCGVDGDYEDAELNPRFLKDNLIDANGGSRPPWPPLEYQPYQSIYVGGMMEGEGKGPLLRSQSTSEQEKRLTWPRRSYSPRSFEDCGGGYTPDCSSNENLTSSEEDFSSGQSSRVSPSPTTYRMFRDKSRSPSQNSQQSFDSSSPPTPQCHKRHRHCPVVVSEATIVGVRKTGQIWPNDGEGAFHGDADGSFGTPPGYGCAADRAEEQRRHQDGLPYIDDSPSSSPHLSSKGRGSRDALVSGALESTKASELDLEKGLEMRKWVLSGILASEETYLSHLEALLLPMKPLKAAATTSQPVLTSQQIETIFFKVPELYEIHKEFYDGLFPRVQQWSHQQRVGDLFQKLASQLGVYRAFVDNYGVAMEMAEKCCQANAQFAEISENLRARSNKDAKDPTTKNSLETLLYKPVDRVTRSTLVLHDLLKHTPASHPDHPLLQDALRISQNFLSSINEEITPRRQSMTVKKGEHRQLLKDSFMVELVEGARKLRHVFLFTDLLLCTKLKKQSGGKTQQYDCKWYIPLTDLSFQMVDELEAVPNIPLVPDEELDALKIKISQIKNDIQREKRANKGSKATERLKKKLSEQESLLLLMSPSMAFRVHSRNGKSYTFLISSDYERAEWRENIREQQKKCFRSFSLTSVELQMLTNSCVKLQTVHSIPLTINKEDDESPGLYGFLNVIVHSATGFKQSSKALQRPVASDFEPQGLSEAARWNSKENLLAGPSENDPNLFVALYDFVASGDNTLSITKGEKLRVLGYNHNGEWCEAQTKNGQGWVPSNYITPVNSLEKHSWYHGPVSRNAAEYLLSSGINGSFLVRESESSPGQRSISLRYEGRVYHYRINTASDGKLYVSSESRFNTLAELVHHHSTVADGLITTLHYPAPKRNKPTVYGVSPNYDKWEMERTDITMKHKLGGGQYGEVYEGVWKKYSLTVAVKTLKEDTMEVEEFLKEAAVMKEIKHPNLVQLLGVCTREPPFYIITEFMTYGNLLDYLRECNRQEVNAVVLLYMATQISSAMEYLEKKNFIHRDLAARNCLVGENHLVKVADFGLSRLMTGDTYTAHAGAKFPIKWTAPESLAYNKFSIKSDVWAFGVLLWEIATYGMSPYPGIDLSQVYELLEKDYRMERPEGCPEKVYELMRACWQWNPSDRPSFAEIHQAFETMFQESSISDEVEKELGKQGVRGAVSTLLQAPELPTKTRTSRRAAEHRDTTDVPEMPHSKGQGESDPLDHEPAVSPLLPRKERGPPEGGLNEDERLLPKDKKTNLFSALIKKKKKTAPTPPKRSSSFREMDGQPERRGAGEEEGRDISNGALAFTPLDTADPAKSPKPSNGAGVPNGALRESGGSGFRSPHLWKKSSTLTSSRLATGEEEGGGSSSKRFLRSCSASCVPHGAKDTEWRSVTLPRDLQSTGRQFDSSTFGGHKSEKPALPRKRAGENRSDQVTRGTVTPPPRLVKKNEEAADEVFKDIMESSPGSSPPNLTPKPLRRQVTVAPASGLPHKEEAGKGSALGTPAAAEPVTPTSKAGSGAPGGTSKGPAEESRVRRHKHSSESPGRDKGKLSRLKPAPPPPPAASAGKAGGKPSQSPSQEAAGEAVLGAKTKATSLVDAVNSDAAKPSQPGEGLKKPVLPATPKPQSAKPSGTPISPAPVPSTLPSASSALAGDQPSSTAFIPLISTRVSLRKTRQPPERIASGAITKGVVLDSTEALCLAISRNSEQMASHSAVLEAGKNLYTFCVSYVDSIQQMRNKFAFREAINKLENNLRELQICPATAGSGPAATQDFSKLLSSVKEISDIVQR

Effect of erythromycin on STI571 block of bcr/abl kinase activity in presence of AGP [3]	SMILES	Effect of erythromycin on AGP-mediated block of STI571 activity on KU812 proliferation [1]	Tumor regression, erythromycin alone ([2]; control groups, erythromycin in methyl cellulose 5%, not shown)	Animals that developed tumor growth, non pretreated mice ([2]; 160 mg/kg every 8 hours for 11 days starting 24 hours after cell injection)	Cure, group printed as 'group II' ([2]; 160 mg/kg p.o. every 8 hours for 11 days, sentence follows the group II relapse rate)	Cured animals, controls not pretreated ([2]; injected with KU812, treated with STI571 24 hours later)	Animals with tumor growth, pretreated mice ([2]; pretreated with STI571, then 160 mg/kg every 8 hours for 11 days starting 24 hours after injection, p<0.05)	Cured animals, pretreated with STI571 ([2]; pretreated, injected with KU812, treated 24 hours later, p<0.01 vs controls)	Response of relapsed tumors to re-treatment ([2]; same 11 day regimen, started when tumors measurable again)	Cure, group I ([2]; treatment started 1 day after cell injection, 160 mg/kg p.o. every 8 hours for 11 days)	Animals showing disappearance of the tumor / tumor free ([2]; treatment started 11 days after injection, tumor load about 400 mg, every 8 hours for 18 days)	Number of animals that relapsed ([2]; treatment started at day 11, 18 days of treatment, relapse between day 25 and 40) [animals]	Animals cured at last day of follow up (day 120) ([2]; treatment started at day 11, tumor load about 400 mg, 18 days, p<0.01 between groups)	Cure of animals bearing large tumors ([2]; tumors >400 mg at start of treatment)
STI571 activity can be restored	CC[C@H]1OC(=O)[C@H](C)[C@@H](O[C@H]2C[C@@](C)(OC)[C@@H](O)[C@H](C)O2)[C@H](C)[C@@H](O[C@@H]2O[C@H](C)C[C@H](N(C)C)[C@H]2O)[C@](C)(O)C[C@@H](C)C(=O)[C@H](C)[C@@H](O)[C@]1(C)O [erythromycin, Erythromycin]	restores sensitivity to STI571 with a clear dose response relationship	do not show any evidence of tumor regression	–	–	–	–	–	–	–	–	–	–	–
–	Cc1ccc(NC(=O)c2ccc(CN3CCN(C)CC3)cc2)cc1Nc1nccc(-c2cccnc2)n1 [STI571]	–	–	0/14	no cure is ever observed	16/16	7/14	8/16	respond poorly to the new treatment	reproducibly cured	5/15	4	1/13	no animal was cured

From US20030125343A1, “Combinations of receptor tyrosine kinase inhibitor with an a1-acidic glycoprotein binding compound” (priority 1999, published 2003)
